Like-named read-outs stand apart in the source and are kept apart here.
How the values were obtained:
Type in all cases: cell-based
P. falciparum = assay: Involvement of enzymatic activity in GX sPLA2-induced inhibition of parasite growth (schizont-enriched culture, 24 h); details: 37.5 μM LY329722 plus 50 nM GX sPLA2, 24 h
Method: Parasitaemia (%) at t 0 h and t 24 h were determined from Diff Quick-stained smears. Y axis states increase of parasitaemia (A parasitaemia (%)), expressed as parasitaemia at t 24 h-parasitaemia at t 0 h;
Parasitaemia (%) before incubation, and after 24 h of incubation, was determined from Diff Quick-stained smears. Parasite growth was expressed as the percent delta of parasitaemia, using the following formula:
ΔP=[(Px−P0)/(P100−P0)]×100; where ΔP is in percent, P0 is the parasitaemia (%) in the initial culture, P100 is the parasitaemia (%) after 24 h in normal culture conditions, and Px is the parasitaemia (%) after 24 h in experimental conditions.

[1] = test system: P. falciparum FcB1 strain; assay: In vitro chemosensitizing activity of PAF on hGX sPLA2 (response modification index); details: fixed sub-inhibitory PAF 25 μM, 37.5 μM and 50 μM
Method: The effects of serial concentrations of PAF (platelet-activating factor) on the susceptibility of the P. falciparum FcB1 strain to GX sPLA2 were assessed in vitro. A P. falciparum culture (1% parasitaemia, 2% haematocrit) was incubated in a 96-well microplate with decreasing concentrations of the recombinant GX sPLA2 in the presence of a fixed, sub-inhibitory concentration of PAF. The response modification index (RMI) as a function of PAF concentration is represented. RMI is the ratio of the 50% inhibitory concentrations (IC50) for GX sPLA2 plus the concentration of PAF, and GX sPLA2 alone. An RMI of 1.0 represents no change in the IC50 for GX sPLA2 when combined with PAF. The RMI values<1.0 represent the degree of potentiation or synergism.
Quantitative analysis of the increased activity of recombinant hGX sPLA2 when combined with PAF was done by comparing concentration-response curves for hGX sPLA2 alone and in the presence of several fixed, sub-inhibitory concentrations of PAF. Effects of each fixed concentration of PAF on the response of the parasites (IC50) to hGX sPLA2 were expressed as the response modification index (RMI) (Oduola et al., 1998). The RMI was calculated by the following formula: RMI=IC50(A,B)/IC50(A), where drug A is hGX sPLA2 and B is PAF. An RMI of 1.0 represents no change in the IC50 for the recombinant hGX sPLA2 combined with PAF. […]

[2] = test system: P. falciparum FcB1/Colombian strain; assay: Anti-Plasmodium activity assay (dose-response, 3H-hypoxanthine incorporation), culture with human serum; details: read-out: IC50 on Plasmodium intra-erythrocytic development
Method: The chloroquine-resistant P. falciparum FcB1/Colombian strain was used. Under the following culture conditions, the in vitro life cycle of the FcB1 strain was 48 hours. Cultures were grown in complete medium consisting of RPMI 1640 (Life Technologies, Inc.) supplemented with 11 mM glucose, 27.5 mM NaHCO3, 100 UI/mL penicillin, 100 μg/mL streptomycin, adjusted to pH 7.4 before addition of heat-inactivated human serum (A+ blood group, 8% final) or Albumax II® (0.5% final), according to the procedure of Trager and Jensen (1976). Parasites were routinely grown at 37° C. in human A+ RBCs (Red blood cells) at a 2% haematocrit and 2-6% parasitemia, in a 3% CO2, 6% O2 and 91% N2 atmosphere. Semi-synchronized cultures were established by Sorbitol (Lambros) treatment. Highly synchronized cultures (4 hour-window synchronization) were obtained by successive Plamion (Pasvol) and Sorbitol treatments. Parasitaemia and stage distribution were determined by optical examination of Diff-Quick stained culture smears. Parasitaemia (expressed in percent) is hundred times the number of parasitized erythrocytes divided by the total number of erythrocytes.
Dried preparations of the purified recombinant human sPLA2s were re-suspended at high concentration (usually 50 μM) in RPMI 0.05% BSA, and then tested individually for their capacity to inhibit the in vitro intra-erythrocytic development of P. falciparum. Dose-response assays based on ^3H-hypoxanthine incorporation by growing parasites were performed as in Guillaume et al. (2004). Radioactivity was measured with a 1450 Microbeta counter (Wallac, Perkin Elmer). Percentage of growth inhibition was calculated from the parasite-associated radioactivity compared with control without sPLA2. Values for the IC50 were determined from dose-response curves.

Row | Compound | effect on GX sPLA2-induced inhibition of parasite growth (P. falciparum) | response modification index (RMI) = IC50(GX sPLA2 + PAF)/IC50(GX sPLA2) [1] | IC50 ([2]; serum PAF-AH inhibited by Pefabloc) [µM] | IC50 ([2]; standard culture conditions) [µM]
1 | CCc1c(C(=O)C(N)=O)c2c(OCC(=O)O)cc(C)cc2n1Cc1ccccc1 [LY329722, sodium [3-aminooxalyl-1-benzyl-2-ethyl-6-methyl-1H-indol-4-yloxy]-acetic acid] | Inhibition of parasite growth was removed |  |  | 
2 | platelet-activating factor [PAF] |  | < 1 | 95 ± 2.8 | 82 ± 1.2

Reference: patent US8709741B2, “Methods of diagnosing a plasmodium infection” (priority 2009, dated 2014)
